Source: PubChem BioAssay (NCI)
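Protocol summary: plate cells (96-well), add compound at 5 concentrations, incubate 48 h, interpolate endpoints linearly. GI50 marks 50% less growth. TGI: concentration producing complete growth inhibition.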

How the values were obtained:
Assay in all cases: NCI-60 cell line screen, 48 h
786-0 renal = tested on: 786-0 renal
A498 renal = tested on: A498 renal
A549 NSCLC = tested on: A549 NSCLC
ACHN renal = tested on: ACHN renal
CAKI-1 renal = tested on: CAKI-1 renal
CCRF-CEM leukemia = tested on: CCRF-CEM leukemia
COLO 205 colon = tested on: COLO 205 colon
DU-145 prostate = tested on: DU-145 prostate
EKVX NSCLC = tested on: EKVX NSCLC
HCT-116 colon = tested on: HCT-116 colon
HL-60(TB) leukemia = tested on: HL-60(TB) leukemia
HOP-62 NSCLC = tested on: HOP-62 NSCLC
HOP-92 NSCLC = tested on: HOP-92 NSCLC
HS 578T breast = tested on: HS 578T breast
HT29 colon = tested on: HT29 colon
IGROV1 ovarian = tested on: IGROV1 ovarian
K-562 leukemia = tested on: K-562 leukemia
KM12 colon = tested on: KM12 colon
LOX IMVI melanoma = tested on: LOX IMVI melanoma
M14 melanoma = tested on: M14 melanoma
MALME-3M melanoma = tested on: MALME-3M melanoma
MCF7 breast = tested on: MCF7 breast
MDA-MB-231 breast = tested on: MDA-MB-231 breast
MDA-MB-435 = tested on: MDA-MB-435
MDA-N = tested on: MDA-N
MOLT-4 leukemia = tested on: MOLT-4 leukemia
NCI-H226 lung = tested on: NCI-H226 lung
NCI-H522 lung = tested on: NCI-H522 lung
OVCAR-3 ovarian = tested on: OVCAR-3 ovarian
OVCAR-4 ovarian = tested on: OVCAR-4 ovarian
OVCAR-5 ovarian = tested on: OVCAR-5 ovarian
OVCAR-8 ovarian = tested on: OVCAR-8 ovarian
PC-3 prostate = tested on: PC-3 prostate
RPMI-8226 leukemia = tested on: RPMI-8226 leukemia
RXF 393 renal = tested on: RXF 393 renal
SF-268 CNS = tested on: SF-268 CNS
SF-295 CNS = tested on: SF-295 CNS
SF-539 CNS = tested on: SF-539 CNS
SK-MEL-2 melanoma = tested on: SK-MEL-2 melanoma
SK-MEL-28 melanoma = tested on: SK-MEL-28 melanoma
SK-MEL-5 melanoma = tested on: SK-MEL-5 melanoma
SK-OV-3 ovarian = tested on: SK-OV-3 ovarian
SN12C renal = tested on: SN12C renal
SNB-19 CNS = tested on: SNB-19 CNS
SNB-75 CNS = tested on: SNB-75 CNS
SR leukemia = tested on: SR leukemia
SW-620 colon = tested on: SW-620 colon
T-47D breast = tested on: T-47D breast
TK-10 renal = tested on: TK-10 renal
U251 CNS = tested on: U251 CNS
UACC-257 melanoma = tested on: UACC-257 melanoma
UO-31 renal = tested on: UO-31 renal
BT-549 breast = tested on: BT-549 breast
HCC-2998 colon = tested on: HCC-2998 colon
HCT-15 colon = tested on: HCT-15 colon
NCI-H23 lung = tested on: NCI-H23 lung
NCI-H460 lung = tested on: NCI-H460 lung
NCI/ADR-RES ovarian = tested on: NCI/ADR-RES ovarian
UACC-62 melanoma = tested on: UACC-62 melanoma

SMILES: COc1ccc2c(O)c1-c1c(OC)ccc(c1O)SSc1ccc(OC)c(c1O)-c1c(OC)ccc(c1O)SS2
- TGI (786-0 renal): > 100 µM
- TGI (A498 renal): > 100 µM
- TGI (A549 NSCLC): > 100 µM
- TGI (ACHN renal): 18.5 µM
- TGI (CAKI-1 renal): > 100 µM
- TGI (CCRF-CEM leukemia): > 100 µM
- TGI (COLO 205 colon): > 100 µM
- TGI (DU-145 prostate): > 100 µM
- TGI (EKVX NSCLC): 44 µM
- TGI (HCT-116 colon): > 100 µM
- TGI (HL-60(TB) leukemia): > 100 µM
- TGI (HOP-62 NSCLC): > 100 µM
- TGI (HOP-92 NSCLC): 90.1 µM
- TGI (HS 578T breast): > 100 µM
- TGI (HT29 colon): > 100 µM
- TGI (IGROV1 ovarian): > 100 µM
- TGI (K-562 leukemia): 97.1 µM
- TGI (KM12 colon): > 100 µM
- TGI (LOX IMVI melanoma): > 100 µM
- TGI (M14 melanoma): > 100 µM
- TGI (MALME-3M melanoma): > 100 µM
- TGI (MCF7 breast): > 100 µM
- TGI (MDA-MB-231 breast): > 100 µM
- TGI (MDA-MB-435): > 100 µM
- TGI (MDA-N): > 100 µM
- TGI (MOLT-4 leukemia): > 100 µM
- TGI (NCI-H226 lung): > 100 µM
- TGI (NCI-H522 lung): 15.5 µM
- TGI (OVCAR-3 ovarian): > 100 µM
- TGI (OVCAR-4 ovarian): 69.8 µM
- TGI (OVCAR-5 ovarian): > 100 µM
- TGI (OVCAR-8 ovarian): > 100 µM
- TGI (PC-3 prostate): 26.4 µM
- TGI (RPMI-8226 leukemia): 7.07 µM
- TGI (RXF 393 renal): 60 µM
- TGI (SF-268 CNS): > 100 µM
- TGI (SF-295 CNS): > 100 µM
- TGI (SF-539 CNS): 69.1 µM
- TGI (SK-MEL-2 melanoma): > 100 µM
- TGI (SK-MEL-28 melanoma): > 100 µM
- TGI (SK-MEL-5 melanoma): > 100 µM
- TGI (SK-OV-3 ovarian): > 100 µM
- TGI (SN12C renal): > 100 µM
- TGI (SNB-19 CNS): > 100 µM
- TGI (SNB-75 CNS): > 100 µM
- TGI (SR leukemia): 21.5 µM
- TGI (SW-620 colon): > 100 µM
- TGI (T-47D breast): 62.9 µM
- TGI (TK-10 renal): > 100 µM
- TGI (U251 CNS): 69 µM
- TGI (UACC-257 melanoma): > 100 µM
- TGI (UO-31 renal): 14 µM

SMILES: CC(=O)Oc1ccc(C2OC(c3ccc4ccccc4c3OC(C)=O)=NN2C(C)=O)c(OC(C)=O)c1 (stereo unspecified)
- GI50 (786-0 renal): 479 nM
- TGI (786-0 renal): > 77.2 µM
- GI50 (A498 renal): 1730 nM
- TGI (A498 renal): 17.5 µM
- GI50 (A549 NSCLC): 412 nM
- TGI (A549 NSCLC): > 48.5 µM
- GI50 (ACHN renal): 264 nM
- TGI (ACHN renal): > 100 µM
- GI50 (BT-549 breast): 841 nM
- TGI (BT-549 breast): 76.3 µM
- GI50 (CAKI-1 renal): 240 nM
- TGI (CAKI-1 renal): 5.44 µM
- GI50 (CCRF-CEM leukemia): 320 nM
- TGI (CCRF-CEM leukemia): > 100 µM
- GI50 (COLO 205 colon): 377 nM
- TGI (COLO 205 colon): > 32.3 µM
- GI50 (DU-145 prostate): 476 nM
- TGI (DU-145 prostate): > 100 µM
- GI50 (HCC-2998 colon): 427 nM
- TGI (HCC-2998 colon): 29 µM
- GI50 (HCT-116 colon): 328 nM
- TGI (HCT-116 colon): > 40.2 µM
- GI50 (HCT-15 colon): 294 nM
- TGI (HCT-15 colon): > 68 µM
- GI50 (HL-60(TB) leukemia): 267 nM
- TGI (HL-60(TB) leukemia): 4.82 µM
- GI50 (HOP-62 NSCLC): 513 nM
- TGI (HOP-62 NSCLC): > 100 µM
- GI50 (HOP-92 NSCLC): 252 nM
- TGI (HOP-92 NSCLC): > 29.5 µM
- GI50 (HS 578T breast): 12 µM
- TGI (HS 578T breast): > 100 µM
- GI50 (HT29 colon): 1620 nM
- TGI (HT29 colon): > 52.8 µM
- GI50 (IGROV1 ovarian): 348 nM
- TGI (IGROV1 ovarian): 15.1 µM
- GI50 (K-562 leukemia): 402 nM
- TGI (K-562 leukemia): > 48.6 µM
- GI50 (KM12 colon): 536 nM
- TGI (KM12 colon): > 57.6 µM
- GI50 (LOX IMVI melanoma): 301 nM
- TGI (LOX IMVI melanoma): 33.8 µM
- GI50 (M14 melanoma): 368 nM
- TGI (M14 melanoma): > 45.6 µM
- GI50 (MALME-3M melanoma): 407 nM
- TGI (MALME-3M melanoma): 5.12 µM
- GI50 (MCF7 breast): 413 nM
- TGI (MCF7 breast): > 38.6 µM
- GI50 (MDA-MB-231 breast): 506 nM
- TGI (MDA-MB-231 breast): > 89.6 µM
- GI50 (MDA-MB-435): 638 nM
- TGI (MDA-MB-435): > 65 µM
- GI50 (MOLT-4 leukemia): 454 nM
- TGI (MOLT-4 leukemia): > 100 µM
- GI50 (NCI-H226 lung): 515 nM
- TGI (NCI-H226 lung): > 38.9 µM
- GI50 (NCI-H23 lung): 1280 nM
- TGI (NCI-H23 lung): 97.4 µM
- GI50 (NCI-H460 lung): 346 nM
- TGI (NCI-H460 lung): > 36 µM
- GI50 (NCI-H522 lung): 369 nM
- TGI (NCI-H522 lung): 6.22 µM
- GI50 (NCI/ADR-RES ovarian): 394 nM
- TGI (NCI/ADR-RES ovarian): > 74.1 µM
- GI50 (OVCAR-3 ovarian): 354 nM
- TGI (OVCAR-3 ovarian): 26.1 µM
- GI50 (OVCAR-4 ovarian): 291 nM
- TGI (OVCAR-4 ovarian): > 75.9 µM
- GI50 (OVCAR-5 ovarian): 2220 nM
- TGI (OVCAR-5 ovarian): > 100 µM
- GI50 (OVCAR-8 ovarian): 363 nM
- TGI (OVCAR-8 ovarian): > 100 µM
- GI50 (PC-3 prostate): 448 nM
- TGI (PC-3 prostate): > 59.6 µM
- GI50 (RPMI-8226 leukemia): 568 nM
- TGI (RPMI-8226 leukemia): > 39.5 µM
- GI50 (RXF 393 renal): 432 nM
- TGI (RXF 393 renal): 16.3 µM
- GI50 (SF-268 CNS): 310 nM
- TGI (SF-268 CNS): > 46 µM
- GI50 (SF-295 CNS): 295 nM
- TGI (SF-295 CNS): 14.8 µM
- GI50 (SF-539 CNS): 342 nM
- TGI (SF-539 CNS): 12.3 µM
- GI50 (SK-MEL-2 melanoma): 602 nM
- TGI (SK-MEL-2 melanoma): > 48.7 µM
- GI50 (SK-MEL-28 melanoma): 559 nM
- TGI (SK-MEL-28 melanoma): > 53.9 µM
- GI50 (SK-MEL-5 melanoma): 321 nM
- TGI (SK-MEL-5 melanoma): > 32.3 µM
- GI50 (SK-OV-3 ovarian): 675 nM
- TGI (SK-OV-3 ovarian): > 52.3 µM
- GI50 (SN12C renal): 512 nM
- TGI (SN12C renal): > 70.6 µM
- GI50 (SNB-19 CNS): 560 nM
- TGI (SNB-19 CNS): > 100 µM
- GI50 (SNB-75 CNS): 1130 nM
- TGI (SNB-75 CNS): > 31.4 µM
- GI50 (SR leukemia): 198 nM
- TGI (SR leukemia): > 34.5 µM
- GI50 (SW-620 colon): 455 nM
- TGI (SW-620 colon): > 43.3 µM
- GI50 (T-47D breast): 664 nM
- TGI (T-47D breast): > 52.6 µM
- GI50 (TK-10 renal): 774 nM
- TGI (TK-10 renal): > 53.8 µM
- GI50 (U251 CNS): 316 nM
- TGI (U251 CNS): 30.4 µM
- GI50 (UACC-257 melanoma): 331 nM
- TGI (UACC-257 melanoma): 6.59 µM
- GI50 (UACC-62 melanoma): 331 nM
- TGI (UACC-62 melanoma): 9.04 µM
- GI50 (UO-31 renal): 146 nM
- TGI (UO-31 renal): 3.14 µM
